{"source": "patent US20110166066A1", "about": "“CATESTATIN (CST) AND ITS VARIANTS FOR TREATMENT OF CARDIOVASCULAR AND METABOLIC DISORDERS” (priority 2008, published 2011)", "key": {"[1]": {"system": "Langendorff perfused rat heart", "assay": "Langendorff perfused rat heart, basal conditions: concentration-response of catestatin peptides", "from_the_text": "Animals-Male Wistar rats (Morini, Bologna, Italy S.P.A.) weighing 180-250 g were housed (three per cage) in a ventilated cage rack system under standard conditions. Animals had food and water access ad libitum. The investigation conforms to the Guide for the Care and Use of Laboratory Animals, according to NIH Publication No. 85-23, revised 1996. Isolated heart preparation-Rats were anesthetized with ethyl carbamate (2 g/Kg rat, i.p.), the hearts rapidly excised and then transferred in ice-cold buffered Krebs-Henseleit solution (KHs). As previously described (23), the aorta was immediately cannulated with a glass cannula and connected to Langendorff apparatus to start perfusion at constant flow-rate (12 ml/min). Briefly, the apex of the left ventricle (LV) was pierced to avoid fluid accumulation. A water-filled latex balloon, connected to a pressure transducer ([…], Inc. USA), was inserted through mitral valve into the LV allowing isovolumic contractions and continuous mechanical parameters recording. Another pressure transducer located just above the aorta recorded coronary pressure (CP). […] Hemodynamic parameters were assessed using a PowerLab data acquisition system and analysed using Chart software (both purchased by ADInstruments, Basile, Italy). […] Curve fitting was accomplished in the program Kaleidagraph (Synergy Software, Reading, Pa.). Peptide EC50 and IC50 values were interpolated as the concentration that achieved 50% stimulation and inhibition, respectively. For analysis of phosphorylated proteins, levels were quantified using Bio-Rad QuantifyOne and volumes of phosphorylated proteins were divided by the levels of non-phosphorylated proteins to calculate fold activation. Stimulation of protein activity was expressed as fold increase over vehicle-treated control. The means and S.E.M. were calculated for each treatment. Multiple comparisons were made using either one-way ANOVA followed by Bonferroni's post-hoc test or two-way ANOVA. Statistical significance was concluded at p<0.05. Statistics were computed with the program InStat (GraphPad Software, Inc., San Diego, Calif.)."}, "[2]": {"system": "WT and Chga knockout (KO) mice", "assay": "BP and HR by telemetry in immobilization stress, conscious mice", "format": "in vivo", "from_the_text": "Animals. Chga knockout (KO) mice and their wild-type (WT) littermates were generated as described (13). All animals were housed on a 12 hr light dark cycle and fed a standard rodent chow. The Animal Care and Use Committee of University of California at San Diego approved all protocols for animal use and euthanasia in accordance with National Institute of Health guidelines. Both WT and KO mice (5-6 month old) in this study were from mixed (129 SvJ and C57BL/6) genetic background.\nConscious mice. Measurement of BP and HR in immobilization stress-induced telemetered mice: BP & HR were measured by telemetry as described previously (13). The experiments were initiated 10 days after the surgery. Immobilization stress was initiated by placing mice in restrainer (Braintree Scientific Inc, Braintree, Mass.) at 10:00 AM and kept for 2 hrs for continuous recording of BP and HR by telemetry followed by recovery from stress in home cages for 2 hrs. CST was injected (40 μg/g bw ip) 30 minutes before stress induction to explore the role of CST in stress response."}, "[3]": {"system": "AKT Ser473", "assay": "Immunoblot of phosphorylated Akt in WT-CST perfused hearts", "design": "species or system rat", "conditions": "110 nM", "method": "Cardiac signaling—Hearts were perfused with or without 110 nM WT-Cts as before. At the end of experiment hearts were snap frozen under liquid nitrogen and homogenized with 1 ml of ice cold 0.2 M sucrose, Tris maleate (pH 7.0) buffer supplemented with 2 mM EDTA, pH 8.0, 1 mM sodium orthovanadate, 10 mM sodium pyrophosphate, 1 mM phenylmethylsulfonyl fluoride, 10 μg/ml leupeptin, 10 μg/ml aprotinin and 0.1 mM 3-isobutyl-1-methylxanthine. SR membrane fractions were isolated from cytosolic proteins as described before (27). Protein content was determined by Bradford assay (BIO-RAD) and 100 μg of cytosolic protein was subjected to SDS-PAGE immunoblot analysis for phosphorylated-ERK, total ERK (P-ERK and T-ERK; Santa Cruz, Calif.). […]\nStatistics—Data are expressed as the mean±SEM. Curve fitting was accomplished in the program Kaleidagraph (Synergy Software, Reading, Pa.). […] For analysis of phosphorylated proteins, levels were quantified using Bio-Rad QuantifyOne and volumes of phosphorylated proteins were divided by the levels of non-phosphorylated proteins to calculate fold activation. Stimulation of protein activity was expressed as fold increase over vehicle-treated control. The means and S.E.M. were calculated for each treatment. […]"}}, "note": "pEC50, pIC50: −log10 of the molar value. Like-named read-outs stand apart in the source and are kept apart here. No end group written: not given here.", "data": [{"sequence": "SSMKLSFRARAYGFRGPGPQL [WT-CST, catestatin]", "values": [{"measurement": "pEC50", "setting": "[1]", "result": "~7.90"}, {"measurement": "Time the LVP effect remained stable", "setting": "[1]", "result": 15, "unit": "min"}, {"measurement": "Time to maximum effect on LVP after administration", "setting": "[1]", "result": 5, "unit": "min"}, {"measurement": "pIC50", "setting": "[1]; 11 to 200 nM, measured at 10 min, read-out: +(LVdP/dt)max inhibition IC50", "result": "~7.14"}, {"measurement": "pEC50", "setting": "[1]; 11 to 200 nM, measured at 10 min, read-out: T/−t increment EC50", "result": 7.22}, {"measurement": "pIC50", "setting": "[1]; 11 to 200 nM, measured at 10 min, read-out: −(LVdP/dt)max decrement IC50", "result": 7.13}, {"measurement": "Concentration of maximum CP response", "setting": "[1]; basal", "result": 200, "unit": "nM"}, {"measurement": "Concentration of maximum HR increase", "setting": "[1]; basal", "result": 165, "unit": "nM"}, {"measurement": "Effect on CP (coronary pressure)", "setting": "[1]; basal", "result": "dose-dependent increment"}, {"measurement": "Activity rank order", "setting": "[1]; basal conditions, Table 2", "result": "Activity: WT-CST > P370L-CST > G364S-CST"}, {"measurement": "Inotropism", "setting": "[1]; basal conditions, Table 2", "result": "Negative"}, {"measurement": "Lusitropism", "setting": "[1]; basal conditions, Table 2", "result": "Negative"}, {"measurement": "Effect on HR", "setting": "[1]; basal, WT-Cts significant at 33 nM", "result": "significantly increased"}, {"measurement": "Desensitization on repetitive exposure", "setting": "[1]; single concentration 33 nM, repeated", "result": "absence of desensitization"}, {"measurement": "Heightened HR responses to stress", "setting": "[2]; KO mice", "result": "abolished"}, {"measurement": "SBP after 1 h of recovery from the stress", "setting": "[2]; KO mice", "result": "brought SBP to WT level"}, {"measurement": "Basal SBP", "setting": "[2]; KO mice, 40 μg/g bw ip", "result": "decreased"}, {"measurement": "Stress-induced increments in SBP", "setting": "[2]; KO mice, 40 μg/g bw ip", "result": "attenuated"}, {"measurement": "HR AUC", "setting": "[2]; KO mice, stress and recovery", "result": "143340±1889"}, {"measurement": "SBP AUC", "setting": "[2]; KO mice, stress and recovery", "result": "26639±399"}, {"measurement": "Basal or stress-induced increments in DBP", "setting": "[2]; WT and KO mice", "result": "no significant effect"}, {"measurement": "Basal and stress-induced increase in HR", "setting": "[2]; WT mice", "result": "no effect"}, {"measurement": "Basal SBP", "setting": "[2]; WT mice, 40 μg/g bw ip", "result": "no effect"}, {"measurement": "Attenuation of stress-induced increments in SBP", "setting": "[2]; WT mice, 40 μg/g bw ip 30 min before stress", "result": 7.1, "unit": "mmHg"}, {"measurement": "Phosphorylation of AKT at Ser473", "setting": "[3]", "result": "inhibited"}]}]}
